Assay results: PMC5074076, “Novel minimal physiologically-based model for the prediction of passive tubular reabsorption and renal excretion clearance” (European Journal of Pharmaceutical Sciences, 2016)
Read-outs that look alike come from different tables or passages of the source.

Assays:
[1] = Caco-2 apparent permeability (Papp), apical to basolateral, pH 6.5-7.4 gradient, efflux inhibitor cocktail; conditions: human, Caco-2, pH 6.5
Description: The assay was performed using the apical to basolateral pH gradient format of pH 6.5 to pH 7.4. […] The efflux transporter inhibitor cocktail was used to minimise the effect of efflux transporters expressed in Caco-2 cells (e.g. P-glycoprotein, BCRP and MRP2) on the estimate of apical to basolateral Papp of substrates for such transporters.

[2] = Observed clearance ratio and fraction reabsorbed (Freab, Freab′) calculated from CLR, fu,p and GFR; conditions: for Freab: observed/apparent, 1 - CLR/(GFR x fu,p), GFR 120 mL/min
Description: The clearance ratio was calculated from clinical data using Eqs. […] For the remaining drugs the fraction reabsorbed (Freab) was calculated using Eq.
GFR values for healthy subjects may vary as a result of biological as well as inter-individual variation and also the method of measurement. […] Individual GFR values for subjects in clinical trials databases were generally not available.
In the proposed model, the nephron is represented as five compartments, namely the glomerulus and four tubular regions, as depicted in Fig. 1. The tubular compartments in the model, listed in anatomical order starting from the glomerulus are: the proximal tubule (PT), the loop of Henle (LoH), the distal tubule (DT) and the collecting duct (CD). […] The relationship between Freab′ and Freab is shown in Eq. (11). The predicted overall Freab′ was calculated from the predicted Freab′ in each (i) tubular region (Freab,i′), as shown in Eq. (12).

[3] = cited from earlier work
[4] = LogD6.5 estimated from LogD7.4 and pKa; conditions: for logD: octanol/buffer
Excerpt: (§1) The pKa values associated with ionisable centres identified within a given drug were used to calculate the fraction of drug ionised at pH 6.5. Drugs were then classified into groups as follows: drugs with > 50% unionised at pH 6.5 were classified as “Neutral”; drugs with > 50% ionised as mono −/di −/tri-protic acids or bases were classified as “Acid” or “Base”, respectively; “Zwitterions” were classified as drugs with > 50% ionised, with the major ionised species having no net charge; all other drugs were classified as amphoteric. […] LogD6.5 for neutral, amphoteric and zwitterion drugs were assumed to be equal to LogD7.4.

[5] = LogD7.4 octanol-buffer, shake-flask (or ACD / BioByte); conditions: pH 7.4; for logD: octanol/buffer
Excerpt: as §1

[6] = Ionisation classification at pH 6.5 from pKa; assay type: physicochemical; conditions: predominant species (> 50%) at pH 6.5 from measured or calculated pKa
Excerpt: as §1

[7] = calculated from observed CLR, fu,p and GFR
[8] = healthy adult subjects, overall weighted mean of literature values, absolute (not normalised), ref Supplementary Results Table S2.1
[9] = healthy subjects, plasma and urine data from same subjects, normalised for subject weight and body surface area where necessary, ref Table S2.1
[10] = overall weighted mean of values obtained from a literature survey, ref Table S2.1

SMILES | Apparent Freab [2, 7] | Apparent Freab’ [2, 7] | CLR [3, 8] [mL/min] | Overall weighted mean CLR [3, 9] [mL/min] | CLR Observed [3, 10] [mL/min] | Ionisation at pH 6.5 [6] | other results
CN(C)CCC(c1ccc(Cl)cc1)c1ccccn1 (stereo not drawn) [Chlorpheniramine] | – | – | – | – | – | – | Papp A→B at 2 h [1]: 28.5 ×10⁻⁶ cm/s
CC(=O)NC[C@H]1CN(c2ccc(N3CCOCC3)c(F)c2)C(=O)O1 [Linezolid] | 0.576 | 0.581 | 39.5 | 39.5 | 39.54 | – | Freab [2]: 0.58
C[C@H]1C[C@H]2[C@@H]3CCC4=CC(=O)C=C[C@]4(C)[C@@]3(F)[C@@H](O)C[C@]2(C)[C@@]1(O)C(=O)CO [Betamethasone] | 0.780 | 0.787 | 9.50 | 9.5 | 9.50 | Neutral | logD ([4]; pH 6.5): 1.99; Freab [2]: 0.78; logD [5]: 1.99
CC(C)NCC(O)COc1ccc(CC(N)=O)cc1 (stereo not drawn) [Atenolol] | -0.247 | -0.249 | – | – | – | Base | –
Cc1cc(=O)n(-c2ccccc2)n1C [Antipyrine] | – | – | – | – | – | Neutral | Apparent Freab ([2]; human, in vivo): 0.989; Apparent Freab’ ([2]; human, in vivo): 0.997; CLR ([3]; human, in vivo): 1.22 mL/min; CLR Observed ([3]; human, in vivo): 1.22 mL/min; Overall weighted mean CLR ([3]; human, in vivo): 1.2 mL/min
C[C@]12C=CC(=O)C=C1CC[C@@H]1[C@@H]2[C@@H](O)C[C@@]2(C)[C@H]1CC[C@]2(O)C(=O)CO [Prednisolone] | 0.099 | 0.100 | 34.3 | 34.3 | 34.30 | Neutral | LogD6.5 ([4]; calculated from pKa and LogD7.4): […]; Freab [2]: 0.10
CC[C@@H](C(N)=O)N1CCCC1=O [Levetiracetam] | 0.636 | 0.641 | 39.4 | 39.4 | 39.35 | Neutral | Papp A→B at 2 h [1]: 15.7 ×10⁻⁶ cm/s; Freab [2]: 0.64
CCCc1cc(=O)[nH]c(=S)[nH]1 [Propylthiouracil] | 0.833 | 0.840 | 3.20 | 3.2 | 3.20 | – | Freab [2]: 0.83
Cc1ncc([N+](=O)[O-])n1CCO [Metronidazole] | 0.918 | 0.925 | 9.64 | 9.6 | 9.64 | Neutral | Papp A→B at 2 h [1]: 64.7 ×10⁻⁶ cm/s; Freab [2]: 0.92
CN(C)[C@@H]1C(O)=C(C(N)=O)C(=O)[C@@]2(O)C(O)=C3C(=O)c4c(O)cccc4[C@@](C)(O)[C@H]3C[C@@H]12 [Tetracycline] | 0.053 | 0.053 | 86.4 | 86.4 | 86.38 | – | Papp A→B at 2 h [1]: 1.1 ×10⁻⁶ cm/s; Freab [2]: 0.05
Cc1cccc(C)c1OCC(C)N (stereo not drawn) [Mexiletine] | -0.252 | -0.254 | 71.6 | 71.6 | 71.61 | – | –
Cn1c(=O)c2c(ncn2C)n(C)c1=O [Caffeine] | 0.987 | 0.995 | 1.06 | 1.1 | 1.06 | – | Freab [2]: 0.99; Freab ([2]; listed as caffeine): ≥ 0.99
COc1c(N2C[C@@H]3CCCN[C@@H]3C2)c(F)cc2c(=O)c(C(=O)O)cn(C3CC3)c12 [Moxifloxacin] | – | – | – | – | – | Zwitterion | –
Nc1ccc(S(=O)(=O)c2ccc(N)cc2)cc1 [Dapsone] | – | – | 5.50 | 5.5 | 5.50 | Neutral | Papp A→B at 2 h [1]: 49.7 ×10⁻⁶ cm/s; logD ([4]; pH 6.5): 0.85; logD [5]: 0.85
OC(Cn1cncn1)(Cn1cncn1)c1ccc(F)cc1F [Fluconazole] | 0.848 | 0.855 | 15.7 | 15.7 | 15.68 | – | Papp A→B at 2 h [1]: 36.3 ×10⁻⁶ cm/s; Freab [2]: 0.85
Cc1onc(-c2c(F)cccc2Cl)c1C(=O)N[C@@H]1C(=O)N2[C@@H]1SC(C)(C)[C@@H]2C(=O)O [Flucloxacillin] | – | – | – | 90.9 | – | – | –
CCCn1c(=O)[nH]c(=O)c2[nH]cnc21 [Enprofylline] | – | – | – | 272.6 | – | – | –

SMILES | Apparent Freab [2, 7] | Apparent Freab’ [2, 7] | CLR [3, 8] [mL/min] | Overall weighted mean CLR [3, 9] [mL/min] | CLR Observed [3, 10] [mL/min] | Ionisation at pH 6.5 [6] | other results
CC1COc2c(N3CCN(C)CC3)c(F)cc3c(=O)c(C(=O)O)cn1c23 (stereo not drawn) [Ofloxacin] | – | – | – | 184.4 | – | – | –
CCN1CCC[C@H]1CNC(=O)c1c(OC)ccc(Br)c1OC [Remoxipride] | – | – | – | 35.6 | – | – | –
CCn1cc(C(=O)O)c(=O)c2cc(F)c(N3CCNCC3)nc21 [Enoxacin] | – | – | – | 256.7 | – | – | –
CC1(C)S[C@@H]2[C@H](NC(=O)[C@H](N)c3ccc(O)cc3)C(=O)N2[C@H]1C(=O)O [Amoxicillin] | – | – | – | 167.0 | – | – | –
CC1(C)S[C@@H]2[C@H](NC(=O)C(C(=O)O)c3ccccc3)C(=O)N2[C@H]1C(=O)O (stereo partly drawn) [Carbenicillin] | – | – | – | 127.0 | – | – | –
CN1CCN(c2c(F)cc3c(=O)c(C(=O)O)cn4c3c2SCC4)CC1 [Rufloxacin] | – | – | – | 16.8 | – | – | –
CC1(C)S[C@@H]2[C@H](NC(=O)[C@H](NC(=O)c3cnc4cccnc4c3O)c3ccccc3)C(=O)N2[C@H]1C(=O)O [Apalcillin] | – | – | – | 29.0 | – | – | –
COc1cc2ncnc(Nc3ccc(F)c(Cl)c3)c2cc1OCCCN1CCOCC1 [Gefitinib] | – | – | – | 8.6 | – | – | –
CO/N=C1\CN(c2nc3c(cc2F)c(=O)c(C(=O)O)cn3C2CC2)CC1CN (stereo not drawn) [Gemifloxacin] | – | – | – | 176.8 | – | – | –
CN(C)CCn1nnnc1SCC1=C(C(=O)O)N2C(=O)[C@@H](NC(=O)Cc3csc(N)n3)[C@H]2SC1 [Cefotiam] | – | – | – | 193.7 | – | – | –
CSc1ccc(C(=O)c2[nH]c(=O)[nH]c2C)cc1 [Enoximone] | – | – | – | 3.4 | – | – | –
CN(C)CCCC1(c2ccc(F)cc2)OCc2cc(C#N)ccc21 (stereo not drawn) [Citalopram] | -0.086 | -0.087 | 65.2 | 65.2 | 65.17 | Base | –
C[C@@H](O)[C@H]1C(=O)N2C(C(=O)O)=C(S[C@H]3C[C@@H](C(=O)N4CC[C@H](NC(=O)CNC(=N)N)C4)N(C)C3)[C@H](C)[C@H]12 [Tomopenem] | – | – | – | 77.7 | – | – | –
CN(C)CCc1c[nH]c2ccc(CS(=O)(=O)N3CCCC3)cc12 [Almotriptan] | – | – | – | 399.5 | – | – | –
Cn1c(=O)c2[nH]cnc2n(C)c1=O [Theophylline] | – | – | 5.50 | 5.5 | 5.50 | Neutral | LogD6.5 ([4]; pH 6.5): − 0.06; LogD7.4 [5]: − 0.09
CN1CCN(c2c(F)cc3c(=O)c(C(=O)O)cn(CCF)c3c2F)CC1 [Fleroxacin] | – | – | – | 67.5 | – | – | –
